The text below walks through data of article PMC6270516 (Molecules, 2013).

The nature of series [1]: physchem. Particulars: simulated gastric fluid.
A short description of series [2]: physchem. Conditions: fassgf or other biorelevant.

Converted amounts (≈) assume the structure as drawn.

Usually solubility stands for how much of the substance goes into solution per volume. Low readings indicate a poorly soluble substance, high ones a readily soluble substance. Usually melting point stands for the temperature of the solid-liquid transition. Compound `CCCCOCCn1c2c(c3ccccc31)CCN1C(=O)c3ccccc3N(C)C21` (centres unmarked) [2-15, N13-(2-Butoxyethyl)evodiamine] gave a melting point of 68 to 70 °C. Besides, the solubility in “physchem [1]” was 30 to 120 µg/mL (≈ 74.3 to 297 µM). Besides, in “physchem [2]”, the solubility fell in the range of 74.4 to 298 µg/mL (≈ 184 to 738 µM).

On to `CN1c2ccccc2C(=O)N2CCc3c(n(CC(=O)c4ccccc4)c4ccccc34)C21` (centres unmarked) [2-13, N13-(Benzonylmethyl)evodiamine], for which the melting point was 245 °C (dec.). The same compound yielded a solubility in “physchem [1]” of 30 to 60 µg/mL (≈ 71.2 to 142 µM). The compound further yielded a solubility in “physchem [2]” of 73.7 to 147 µg/mL (≈ 175 to 349 µM).

Consider `CN1c2ccccc2C(=O)N2CCc3c(n(CCO)c4ccccc34)C21` (centres unmarked) [4-1, N13-(2-Hyroxyethyl)evodiamine], for which the melting point was in the range of 166 to 168 °C. This compound yielded a solubility in the series “physchem [1]” above 220 µg/mL. In “physchem [2]”, this compound displayed a solubility of 320 µg/mL (≈ 921 µM).

As to `CN1c2ccccc2C(=O)N2CCc3c(n(CC=NO)c4ccccc34)C21` (centres unmarked) [6-1, 2-(Evodiamin-N13-yl)acetaldehyde oxime], the solubility in the series “physchem [1]” is 60 µg/mL (≈ 166 µM); in “physchem [2]” it was 167 µg/mL (≈ 463 µM).

For the compound `CCCCCn1c2c(c3ccccc31)CCN1C(=O)c3ccccc3N(C)C21` (centres unmarked) [2-3, N13-Pentylevodiamine], the melting point lay within 143 to 145 °C. This compound also gave a solubility in the series “physchem [1]” of 60 to 120 µg/mL (≈ 161 to 321 µM). Further, in the series “physchem [2]”, the solubility stood at 322 µg/mL (≈ 862 µM).

For the compound `CCCOC(=O)Cn1c2c(c3ccccc31)CCN1C(=O)c3ccccc3N(C)C21` (centres unmarked) [2-27, N13-(Propoxycarbonylmethyl)evodiamine], the melting point was 168 to 170 °C. The solubility in the series “physchem [1]” was 72.9 µg/mL (≈ 181 µM). The solubility in “physchem [2]” came out at 132 µg/mL (≈ 326 µM).

With `C=CCn1c2c(c3ccccc31)CCN1C(=O)c3ccccc3N(C)C21` (centres unmarked) [2-1, N13-Allylevodiamine], the melting point lay in the range of 163 to 165 °C. This compound also showed a solubility in the series “physchem [1]” of 60 µg/mL (≈ 175 µM). The same compound displayed a solubility in “physchem [2]” of 175 µg/mL (≈ 510 µM).

In turn, `CN1c2ccccc2C(=O)N2CCc3c(n(CCCCCl)c4ccccc34)C21` (centres unmarked) [2-11, N13-(4-Chlorobutyl)evodiamine] registered a melting point of 127 to 129 °C. The compound also had a solubility in “physchem [1]” of 98 µg/mL (≈ 249 µM). For the same compound, in the series “physchem [2]”, the solubility turned out to be 273 µg/mL (≈ 693 µM).

Regarding `CCOC(=O)CCCn1c2c(c3ccccc31)CCN1C(=O)c3ccccc3N(C)C21` (centres unmarked) [2-23, N13-(3-(Ethoxycarbonyl)propyl)evodiamine], the melting point was in the range of 265 to 268 °C. For the same compound, the concentration in solution in the series “physchem [1]” (solubility) was 30 µg/mL (≈ 71.9 µM). This compound showed a solubility in the series “physchem [2]” of 71.9 µg/mL (≈ 172 µM).

In the case of `COCCn1c2c(c3ccccc31)CCN1C(=O)c3ccccc3N(C)C21` (centres unmarked) [2-14, N13-(2-Methoxyethyl)evodiamine], the melting point lay in the range of 166 to 168 °C. The compound further came in with a solubility in the series “physchem [1]” of 15 to 30 µg/mL (≈ 41.5 to 83 µM). In the series “physchem [2]”, this compound yielded a solubility of 41.6 to 83.1 µg/mL (≈ 115 to 230 µM).

`CC(C)=CCn1c2c(c3ccccc31)CCN1C(=O)c3ccccc3N(C)C21` (centres unmarked) [2-4, N13-(3-Methyl-2-butenyl)evodiamine]: the solubility was 60 µg/mL (≈ 162 µM) in “physchem [1]” and 162 µg/mL (≈ 436 µM) in “physchem [2]”.

For the compound `CCC(=O)OCCn1c2c(c3ccccc31)CCN1C(=O)c3ccccc3N(C)C21` (centres unmarked) [2-21, N13-(2-Propionyloxyethyl)evodiamine], the melting point lay within 205 to 206 °C. In “physchem [1]”, this compound came in with a solubility above 120 µg/mL. In “physchem [2]”, this compound returned a solubility above 308 µg/mL.

With `CN1c2ccccc2C(=O)N2CCc3c(n(CCCCCn4c5c(c6ccccc64)CCN4C(=O)c6ccccc6N(C)C54)c4ccccc34)C21` (centres unmarked) [3-1, 1,5-Bis-(evodiamin-N13-yl)pentane], the melting point lay in the range of 217 to 219 °C. The compound also had a solubility in the series “physchem [1]” above 120 µg/mL. For the same compound, the solubility in “physchem [2]” was above 350 µg/mL.

In the case of `CN1c2ccccc2C(=O)N2CCc3c(n(CCCc4ccccc4)c4ccccc34)C21` (centres unmarked) [2-6, N13-(3-Phenylpropyl)evodiamine], the melting point lay within 158 to 160 °C. Besides, the concentration in solution in “physchem [1]” (solubility) came to 60 µg/mL (≈ 142 µM). Also, the concentration in solution in “physchem [2]” (solubility) was 142 µg/mL (≈ 338 µM).

Take `CC(=O)OCCCn1c2c(c3ccccc31)CCN1C(=O)c3ccccc3N(C)C21` (centres unmarked) [2-20, N13-(3-Acetoxypropyl)evodiamine]: the results for the solubility in “physchem [1]” and in “physchem [2]” were above 120 µg/mL and 278 µg/mL (≈ 689 µM), respectively.

Compound `CN1c2ccccc2C(=O)N2CCc3c(n(CCOCCOCCCl)c4ccccc34)C21` (centres unmarked) gave a melting point of 126 to 128 °C.

`CCOC(Cn1c2c(c3ccccc31)CCN1C(=O)c3ccccc3N(C)C21)OCC` (centres unmarked) [2-18, N13-(2,2-Diethoxyethyl)evodiamine] gave a melting point of 117 to 119 °C. Also, in “physchem [1]”, the solubility is above 120 µg/mL. The same compound returned a solubility in “physchem [2]” of 286 µg/mL (≈ 682 µM).

In the case of `CN1c2ccccc2C(=O)N2CCc3c(n(CCCCl)c4ccccc34)C21` (centres unmarked) [2-9, N13-(3-Chloropropyl)evodiamine], the melting point was in the range of 118 to 120 °C. The same compound had a solubility in “physchem [1]” of 60 to 120 µg/mL (≈ 158 to 316 µM). In “physchem [2]”, this compound gave a solubility of 322 µg/mL (≈ 848 µM).

For the compound `COCCOCCn1c2c(c3ccccc31)CCN1C(=O)c3ccccc3N(C)C21` (centres unmarked) [2-17, N13-(2-(2-Methoxyethoxy)ethyl)evodiamine], the melting point was 116 to 118 °C. The compound also yielded a solubility in “physchem [1]” of 60 µg/mL (≈ 148 µM). The same compound displayed a solubility in the series “physchem [2]” of 148 µg/mL (≈ 365 µM).

With `CCCCn1c2c(c3ccccc31)CCN1C(=O)c3ccccc3N(C)C21` (centres unmarked) [2-2, N13-Butylevodiamine], the melting point fell in the range of 141 to 143 °C. The compound further yielded a solubility in the series “physchem [1]” above 120 µg/mL. For the same compound, the solubility in the series “physchem [2]” was above 334 µg/mL.

Compound `CC(C)Cn1c2c(c3ccccc31)CCN1C(=O)c3ccccc3N(C)C21` (centres unmarked) [2-7, N13-Isobutylevodiamine] displayed a melting point of 154 to 156 °C. In addition, in “physchem [1]”, the solubility was above 110 µg/mL. This compound gave a solubility in “physchem [2]” above 310 µg/mL.

As for `CN1c2ccccc2C(=O)N2CCc3c(n(CCCCCCn4c5c(c6ccccc64)CCN4C(=O)c6ccccc6N(C)C54)c4ccccc34)C21` (centres unmarked) [3-2, N1,6-Bis-(evodiamin-N13-yl)hexane], the melting point was 131 to 133 °C. The compound further yielded a solubility in “physchem [1]” above 120 µg/mL. The compound further showed a solubility in “physchem [2]” above 320 µg/mL.

In the case of `CN1c2ccccc2C(=O)N2CCc3c(n(CCCBr)c4ccccc34)C21` (centres unmarked), the melting point is 130 to 132 °C.

As to `CON=CCn1c2c(c3ccccc31)CCN1C(=O)c3ccccc3N(C)C21` (centres unmarked) [6-2, 2-(Evodiamin-N13-yl)acetaldehyde O-methyl oxime], the melting point is 216 °C (dec.). In the series “physchem [1]”, this compound had a solubility of 60 µg/mL (≈ 160 µM). This compound also yielded a solubility in “physchem [2]” of 160 µg/mL (≈ 428 µM).

Compound `CN1c2ccccc2C(=O)N2CCc3c(n(CC4CO4)c4ccccc34)C21` (centres unmarked) [2-24, N13-((Oxiran-2-yl)methyl)evodiamine] came in with a melting point of 189 to 191 °C. The solubility in the series “physchem [1]” was 20 µg/mL (≈ 55.6 µM). This compound displayed a solubility in the series “physchem [2]” of 55.7 µg/mL (≈ 155 µM).

As to `CCOC(=O)CCn1c2c(c3ccccc31)CCN1C(=O)c3ccccc3N(C)C21` (centres unmarked) [2-22, N13-(2-(Ethoxycarbonyl)ethyl)evodiamine], the solubility in “physchem [1]” is above 120 µg/mL; in “physchem [2]” it was 265 µg/mL (≈ 657 µM).

For the compound `CN1c2ccccc2C(=O)N2CCc3c(n(CCCCCBr)c4ccccc34)C21` (centres unmarked) [2-26, N13-(5-Bromopentyl)evodiamine], the solubility is 67.8 µg/mL (≈ 150 µM) in the series “physchem [1]” and 132 µg/mL (≈ 292 µM) in “physchem [2]”.

`CN1c2ccccc2C(=O)N2CCc3c(n(CCCC(=O)O)c4ccccc34)C21` (centres unmarked) [compound 5, 4-(Evodiamin-N13-yl)butyric acid]: the melting point is 234 °C (dec.). The same compound showed a solubility in the series “physchem [1]” of 60 µg/mL (≈ 154 µM). Also, in “physchem [2]”, the solubility amounted to 154 µg/mL (≈ 395 µM).

Compound `CCCCCCCCn1c2c(c3ccccc31)CCN1C(=O)c3ccccc3N(C)C21` (centres unmarked) [2-5, N13-Octylevodiamine] showed a melting point of 65 to 67 °C. Further, the solubility in “physchem [1]” is 30 µg/mL (≈ 72.2 µM). The compound further returned a solubility in “physchem [2]” of 72.3 µg/mL (≈ 174 µM).

On to `CC(=O)OCCn1c2c(c3ccccc31)CCN1C(=O)c3ccccc3N(C)C21` (centres unmarked) [2-19, N13-(2-Acetoxyethyl)evodiamine], for which the melting point lay within 211 to 213 °C. This compound also returned a solubility in the series “physchem [1]” above 120 µg/mL. Also, the solubility in “physchem [2]” is 308 µg/mL (≈ 791 µM).

For the compound `CN1c2ccccc2C(=O)N2CCc3c(n(CC=O)c4ccccc34)C21` (centres unmarked) [compound 6, 2-(Evodiamin-N13-yl)acetaldehyde], the figures for the solubility in the series “physchem [1]” and in “physchem [2]” were 60 µg/mL (≈ 174 µM) and 174 µg/mL (≈ 503 µM), respectively.

The compound `CC(C)CCn1c2c(c3ccccc31)CCN1C(=O)c3ccccc3N(C)C21` (centres unmarked) [2-8, N13-Isopentylevodiamine] registered a melting point of 108 to 110 °C. This compound also yielded a solubility in “physchem [1]” above 150 µg/mL. The solubility in “physchem [2]” was above 373 µg/mL.

With `CCOC(=O)CCCCn1c2c(c3ccccc31)CCN1C(=O)c3ccccc3N(C)C21` (centres unmarked) [2-28, N13-(4-(Ethoxycarbonyl)butyl)evodiamine], the melting point fell in the range of 251 to 253 °C. The solubility in the series “physchem [1]” was 89.4 µg/mL (≈ 207 µM). Further, the solubility in “physchem [2]” came out at 166 µg/mL (≈ 384 µM).
